Experimental findings from US12421212B2, “Substituted benzenecarboxamides as IL-17A modulators” (DiCE Alpha, Inc., priority 2019, dated 2025) are described below.

The structures appear in SMILES notation.

For the first assay, the target named is T1, IL-17A/A (Homo sapiens, UniProt Q16552).
T1 construct: purchased Genscript Z03228
T1 sequence (Q16552 24-155): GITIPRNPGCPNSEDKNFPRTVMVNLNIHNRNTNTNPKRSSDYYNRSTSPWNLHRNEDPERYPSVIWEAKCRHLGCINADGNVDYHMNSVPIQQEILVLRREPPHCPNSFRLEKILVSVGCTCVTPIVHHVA
Description: IL-17A/A HEK-Blue Cell Assay. It counts as cell-based. As to conditions: HEK-Blue IL-17A reporter cell line, SEAP readout at A630, 20 hours incubation with IL-17A/A; top concentration 10 uM, 1 uM or 0.3 uM.
As for `CCC(=O)N[C@H](Cc1ccc(NC(=O)[C@@H](NC(=O)c2ccnn2CC)C2CCCCC2)c(F)c1)C(=O)N1CC2(CN(C)C2)C1` [Compound 750], the “IL-17A/A inhibition (pIC50)” value is “X2b (compounds were evaluated up to 1 uM and inhibited activity at 1 uM by less than 20%)”.

On to `CCn1nccc1C(=O)N[C@H](C(=O)Nc1ccc([C@H](C)[C@@H](NC(=O)c2ccc(CN(C)C)o2)C(=O)N2CCN(C)CC2)cc1F)C1CCCCC1` [Compound 745], for which the “IL-17A/A inhibition (pIC50)” value was “X2b (compounds were evaluated up to 1 uM and inhibited activity at 1 uM by less than 20%)”.

As for `CCC(=O)N[C@H](Cc1ccc(NC(=O)[C@@H](NC(=O)c2ccnn2CC)C2CCCCC2)c(F)c1)C(=O)N1CCNCC1` [Compound 746], the “IL-17A/A inhibition (pIC50)” value is “X2b (compounds were evaluated up to 1 uM and inhibited activity at 1 uM by less than 20%)”.

Still in this assay, the particulars now being: HEK-Blue IL-17A reporter cell line, SEAP readout at A630, 20 hours incubation with IL-17A/A; top concentration 10 uM, 1 uM or 0.3 uM; read-out: IL-17A/A inhibition (pIC50) (converted).
In the case of `CCC(=O)N[C@@H](C(=O)N1CCN(C)CC1)[C@@H](C)c1ccc(NC(=O)[C@@H](NC(=O)C(F)(F)c2ccc(OC)nc2)C2CCCCCC2)cc1` [Compound 222], the IC50 is 10 to 100 nM.

As for `CCc1nonc1C(=O)N[C@H](C(=O)Nc1ccc([C@H](C)[C@@H](NC(=O)c2ccnc3c2OCCO3)C(=O)N2CCN(C)CC2)cc1F)[C@H]1CC[C@H](C)CC1` [Compound 579], the IC50 was 10 to 100 nM.

In the case of `CCC(=O)N[C@@H](C(=O)N1CCN(C)CC1)[C@@H](C)c1ccc(NC(=O)C(NC(=O)c2ccnn2CC)C(CC)c2ccc(F)cc2)c(F)c1` (single isomer, unassigned) [Compound 554], the IC50 was 100 to 10000 nM.

Turning to `CCC(=O)N[C@@H](C(=O)N1CCC(F)(F)CC1)[C@@H](C)c1ccc(NC(=O)[C@@H](NC(=O)c2nonc2CC)[C@H]2CC[C@H](C)CC2)c(F)c1` [Compound 468], the IC50 was 10 to 100 nM.

Consider `CCC(=O)N[C@@H](C(=O)N1CCS(=O)(=O)CC1)[C@@H](C)c1ccc(NC(=O)[C@@H](NC(=O)C(F)(F)c2cccc(C#N)c2)C2CCCCCC2)c(F)c1` [Compound 354], for which the IC50 is less than 10 nM.

Take `CCn1nccc1C(=O)N[C@H](C(=O)Nc1ccc([C@H](C)[C@@H](NC(=O)CC2CC2)C(=O)N2CCN(C)CC2)cc1F)C1CCCCC1` [Compound 307]: the IC50 is 10 to 100 nM.

Turning to `CCC(=O)N[C@H](Cc1ccc(NC(=O)[C@@H](NC(=O)c2ccnn2CC)C2CCCCC2)c(F)c1)C(=O)N1CCN(Cc2ccccn2)CC1` [Compound 640], the IC50 was 100 to 10000 nM.

Take `CCC(=O)N[C@@H](C(=O)N1CCN(C)CC1)C(OC)c1ccc(NC(=O)[C@@H](NC(=O)c2ccnn2CC)[C@H]2CC[C@H](C)CC2)c(F)c1` (stereo partly drawn) [Compound 572]: the IC50 is 100 to 10000 nM.

Consider `CCC(=O)N[C@@H](C(=O)N1CCN(CC)[C@@H](C)C1)[C@@H](C)c1ccc(NC(=O)[C@@H](NC(=O)c2ccnn2CC)[C@H]2CC[C@H](C)CC2)c(F)c1` [Compound 427], for which the IC50 is less than 10 nM.

Consider `CCC(=O)N[C@@H](C(=O)N1CCN(C)CC1)[C@@H](C)c1ccc(NC(=O)[C@@H](NC(=O)c2coc3c2COC3)C2CCCCCC2)c(F)c1` [Compound 266], for which the IC50 is less than 10 nM.

On to `CCn1nccc1C(=O)N[C@H](C(=O)Nc1ccc([C@H](C)[C@@H](NC(=O)c2ccnn2C2CCOCC2)C(=O)N2CCC(C)(O)CC2)cc1F)[C@H]1CC[C@H](C)CC1` [Compound 417], for which the IC50 was less than 10 nM.

As to `CCC(=O)N[C@@H](C(=O)N1CCN(C)CC1)[C@@H](C)c1ccc(NC(=O)[C@@H](NC(=O)c2ccc(CNC(=O)COCC(=O)O)s2)C2CCCCC2)c(F)c1` [Compound 767], the IC50 is 100 to 10000 nM.

For the molecule `CCC(=O)N[C@@H](C(=O)N1CC(F)(F)C1)[C@@H](C)c1ccc(NC(=O)[C@@H](NC(=O)c2ccnn2CC)C2CCCCC2)c(F)c1` [Compound 629], the IC50 was 100 to 10000 nM.

`CCC(=O)N[C@@H](C(=O)O)[C@@H](C)c1ccc(NC(=O)[C@@H](NC(=O)c2ccnn2CC)C2CCCCCC2)c(F)c1` [Compound 768]: the IC50 was 100 to 10000 nM.

As to `COc1ccc(C(F)(F)C(=O)N[C@H](C(=O)Nc2ccc([C@H](C)[C@@H](NC(=O)c3cnsc3)C(=O)N3CCN(C)CC3)cc2F)[C@H]2CC[C@H](C)CC2)cn1` [Compound 622], the IC50 is 10 to 100 nM.

For `CCC(=O)N[C@@H](C(=O)N1CCN(C)CC1)[C@@H](C)c1ccc(NC(=O)[C@@H](NC(=O)C(F)(F)c2cncc(C#N)c2)C2CCCCCC2)c(F)c1` [Compound 261], the IC50 is less than 10 nM.

For the molecule `CCC(=O)N[C@@H](C(=O)N1CCN(C)CC1)C(OC)c1ccc(NC(=O)[C@@H](NC(=O)c2ccnn2CC)[C@H]2CC[C@H](C)CC2)c(F)c1` (single isomer, unassigned) [Compound 614], the IC50 was 100 to 10000 nM.

`CCC(=O)N[C@@H](C(=O)N1CCN(C)CC1)[C@@H](C)c1ccc(NC(=O)[C@@H](NC(=O)c2ccnn2CC)C2CCCCC2)cc1` [Compound 639]: the IC50 was 100 to 10000 nM.

In the case of `CCC(=O)N[C@@H](C(=O)N1CCN(C)CC1)[C@@H](CC)c1ccc(NC(=O)[C@@H](NC(=O)c2ccnn2CC)C2CCCCC2)cc1` [Compound 680], the IC50 is 100 to 10000 nM.

Consider `CCC(=O)N[C@@H](C(=O)N1CCN(C(C)C)CC1)[C@@H](C)c1ccc(NC(=O)[C@@H](NC(=O)c2ccnn2CC)C2CCCCC2)c(F)c1` [Compound 362], for which the IC50 is 10 to 100 nM.

Turning to `CCc1nonc1C(=O)N[C@H](C(=O)Nc1ccc([C@H](C)[C@@H](NC(=O)COC)C(=O)N2CCN(C)CC2)cc1F)[C@H]1CC[C@H](C)CC1` [Compound 499], the IC50 is less than 10 nM.

For the molecule `CCC(=O)N[C@@H](C(=O)N1CCN(CCOC)CC1)[C@@H](C)c1ccc(NC(=O)[C@@H](NC(=O)c2ccnn2CC)C2CCCCC2)c(F)c1` [Compound 358], the IC50 is 10 to 100 nM.

In the case of `COc1ccc(C(F)(F)C(=O)N[C@H](C(=O)Nc2ccc([C@H](C)[C@@H](NC(=O)c3cnns3)C(=O)N3CCN(C)CC3)cc2F)[C@H]2CC[C@H](C)CC2)cn1` [Compound 620], the IC50 was less than 10 nM.

For `CCC(=O)N[C@@H](C(=O)N1CCN(C)[C@@H](C)C1)[C@@H](C)c1ccc(NC(=O)[C@@H](NC(=O)c2nonc2CC)[C@H]2CC[C@H](C)CC2)c(F)c1` [Compound 460], the IC50 is less than 10 nM.

For `CCC(=O)N[C@@H](C(=O)N1CCN(C)CC1)[C@@H](C)c1ccc(NC(=O)[C@@H](NC(=O)C(F)(F)c2cccc(NS(C)(=O)=O)c2)C2CCCCC2)c(F)c1` [Compound 251], the IC50 was 10 to 100 nM.

For `CCn1nccc1C(=O)N[C@H](C(=O)Nc1ccc([C@H](C)[C@@H](NC(=O)CC2CC2)C(=O)N2CCN(Cc3ccccc3)CC2)cc1F)[C@H]1CC[C@H](C)CC1` [Compound 443], the IC50 was less than 10 nM.

Take `CCC(=O)N[C@@H](C(=O)N1CCN(C)CC1)[C@@H](C)c1ccc(NC(=O)[C@@H](NC(=O)c2csc3ccccc23)C2CCCCCC2)c(F)c1` [Compound 259]: the IC50 was less than 10 nM.

Regarding `CCC(=O)N[C@@H](C(=O)N1CCN(C)CC1)[C@@H](C)c1ccc(NC(=O)[C@@H](NC(=O)c2cccn2CC)C2CCCCCC2)c(F)c1` [Compound 275], the IC50 was less than 10 nM.

For `CCc1nonc1C(=O)N[C@H](C(=O)Nc1ccc([C@H](C)[C@@H](NC(=O)N(C)C)C(=O)N2CCN(C)CC2)cc1F)[C@H]1CC[C@H](C)CC1` [Compound 514], the IC50 was less than 10 nM.

Turning to `CC(C)n1nccc1C(=O)N[C@H](C(=O)Nc1ccc([C@H](C)[C@@H](NC(=O)c2cnns2)C(=O)N2CCN(C)CC2)cc1F)C1CCCCC1` [Compound 312], the IC50 was less than 10 nM.
